US20070232690A1, “Composition for inducing differentiation of leukemic cells and application thereof” (Mackay Memorial Hospital, priority 2006, published 2007)
In brackets after ≈: the same amount, converted by molar mass. Marks after values point to notes of the source that are not given here.

Columns and labels:
Type in all cases: cell-based, human
[1] = test system: c-myc, c-fms, c-fos and c-jun in HL-60 cells; experiment: Expression of proto-oncogenes (RNA blot)
Procedure: Total RNA was isolated from HL-60 cells using an RNAzol B kit (Biotecx, Galveston, Tex.) and quantified spectrophotometrically. Total cellular RNA (20 μg) from control or 278E-treated cells was electrophoresed on a 1.2% agarose gel and transferred to a nylon membrane. The blots were probed with radiolabeled cDNA of c-myc, c-fms, c-fos and c-jun. Glyceraldehyde-3-phosphate dehydrogenase (G3PDH) was used as an internal control.

[2] = test system: HL-60 cells; experiment: Maturation profiles (morphology, Wright's stain)
Procedure: (§1) After 5 days of treatments (1-5 μg/ml of 278E) as described in Example 1, HL-60 cells were collected and cytocentrifuged onto a microscope slide using a Cytospin, stained with Wright's stain and observed under an inverted microscope (Olympus) with a magnification of 1000×. Based on morphology, the cells were classified as: (1) immature blasts, (2) intermediates, or (3) mature monocytes or macrophages, and the ratio was counted respectively.

[3] = test system: HL-60 cells; experiment: Assay for cell growth inhibition (Trypan blue dye exclusion); details: for inhibition at 5 µg/mL: 5 μg/ml
Excerpt: The human myeloid leukemic cell line HL-60 is known to be induced by several biological agents or chemical drugs to differentiate into mature cells. The results of differentiation can be cell morphological changes, cell chemical changes or functionally mature changes. Therefore, HL-60 cells were often applied in many differentiation studies of leukemic cells. The present invention used the human myeloid leukemic cell line HL-60 (ATCC, Manassas, Va.) to study the cell differentiation inducting ability of 278E.
The HL-60 cells were cultured in RPMI 1640 medium containing 10% fetal bovine serum and maintained in an exponential growth state. For assay of cytotoxicity, cells were incubated at an initial concentration of 1×10^5 cells/ml in the presence of various concentrations of 278E compounds (1-6 μg/ml) for 1-5 days.

[4] = test system: HL-60 cells; experiment: Assay for differentiation antigens (indirect immunofluorescence, flow cytometry); details: day 5
Procedure: An indirect immunofluorescence method was employed in the invention to detect the expression of monocyte-associated antigens on the surface of HL-60 cells after induction of differentiation. 278E-treated cells collected from day 5 cultures were treated with primary monoclonal antibodies, washed with PBS and then exposed to a solution containing […] (FITC) conjugated secondary antibody, goat F(ab′)2 antimouse IgG (Cappel, Cochranville, Pa.). The aforementioned monoclonal antibodies against human monocytes included anti-CD 11b, anti-CD14 (Serotec, Oxford, UK), and anti-CD68 (Dakopatts, Glostrup, Denmark). The percentage of positive cells analyzed with a FACScan flow cytometer (Becton Dickenson, Franklin Lakes, N.J.) and Lysis II software (Becton Dickinson) is shown in Table 2.

[5] = test system: HL-60 cells; experiment: Induction of monocytic differentiation by various combination treatments
[6] = test system: HL-60 cells; experiment: Assay for superoxide production (NBT reduction); details: 5 days
Procedure: It has been known that immature blast cells had little superoxide production. The differentiation of cells is further evidenced in changes of superoxide production. Cells collected from example 1 after treatment with 278E for 5 days were collected and resuspended in RPMI 1640 medium at a concentration of 1×10^6 cells/ml and incubated for 30 min at 37° C. with an equal volume of nitroblue tetrazolium test stock solution [containing 2 mg of NBT and 1 μM of phorbol myristate acetate per ml of phosphate buffered saline]. Cells were collected and cytocentrifuged onto a microscope slide using cytospin. Cytospin preparations were counter-stained with 0.5% safranin O. The percentage of formazan-containing cells (based on counting 200 cells) was assessed microscopically.

[7] = test system: HL-60 cells; experiment: Induction of monocytic differentiation by various combination treatments; remark: listed apart in the source
Procedure: as §1, with “[…])” for “278E)”, “[…] These combination treatments included: […]” for “(1) immature blasts, (2) intermediates, or (3) mature monocytes or macrophages, and the ratio was counted respectively.”

Structure (SMILES): COc1cc(-c2oc3c(OC)cc(CCCO)cc3c2CO)ccc1Oc1ccccc1 [278E]
- expression of c-myc ([1]; 6 μg/ml, 16 hour treatment (FIG. 4A)): markedly suppressed
- expression of c-fms ([1]; after treatment (FIG. 4B)): enhanced
- expression of c-jun ([1]; after treatment (FIG. 4C)): enhanced
- expression of c-fos ([1]; after treatment (FIG. 4D)): enhanced
- cell morphology ([2]; after 5 days of treatment (FIG. 2B)): many cells exhibited changes in characteristics
- percentage of mature monocyte/macrophage ([2]; after 5 days of treatment (FIG. 3), concentration not given): 82.0±6.3%
- effect on cell viability compared with untreated cells ([3]; 1 μg/ml): minimal effect
- inhibition at 5 µg/mL ([3]; Homo sapiens, HL-60, 72 h, day 3): 85.5 ± 2.8%
- inhibition at 5 µg/mL ([3]; Homo sapiens, HL-60, 120 h, day 5): 91.7 ± 1.7%
- IC50 ([3]; Homo sapiens, HL-60 cells, viable cell count, 1-6 μg/ml for 1-5 days, read-out: concentration yielding 50% inhibition (IC50)): 3.48 µg/mL (≈ 8.01 µM)
- growth of HL-60 cells ([3]; dose- and time-dependent (FIG. 1)): inhibited significantly
- Positive cells (%) CD11b ([4]; 1 μg/ml): 1.8 ± 0.5%
- Positive cells (%) CD14 ([4]; 1 μg/ml): 1.5 ± 0.4%
- Positive cells (%) CD68 ([4]; 1 μg/ml): 1.4 ± 0.4%
- Positive cells (%) CD11b ([4]; 2 μg/ml): 2.6 ± 0.6%
- Positive cells (%) CD14 ([4]; 2 μg/ml): 2.1 ± 0.6%
- Positive cells (%) CD68 ([4]; 2 μg/ml): 1.8 ± 0.4%
- Positive cells (%) CD11b ([4]; 3 μg/ml): 18.1 ± 6.5 ^a %
- Positive cells (%) CD14 ([4]; 3 μg/ml): 5.8 ± 2.8%
- Positive cells (%) CD68 ([4]; 3 μg/ml): 5.6 ± 2.1%
- Positive cells (%) CD11b ([4]; 4 μg/ml): 62.1 ± 10.4 ^a %
- Positive cells (%) CD14 ([4]; 4 μg/ml): 47.7 ± 10.6 ^a %
- Positive cells (%) CD68 ([4]; 4 μg/ml): 34.5 ± 9.9 ^a %
- Positive cells (%) CD11b ([4]; 5 μg/ml): 79.6 ± 9.8 ^a %
- Positive cells (%) CD68 ([4]; 5 μg/ml): 53.7 ± 10.0 ^a %
- monocytes/macrophages (%) ([5]; 278E 6 μg/m with H7 15 μM): 51.3 ± 5.3%
- monocytes/macrophages (%) ([5]; 278E 6 μg/ml alone): 56.1 ± 6.2%
- monocytes/macrophages (%) ([5]; 278E 6 μg/ml with Staurosporine 10 nM): 55.6 ± 4.7%
- NBT reduction, Positive cells (%) ([6]; 1 μg/ml): 0.3 ± 0.3%
- NBT reduction, Positive cells (%) ([6]; 2 μg/ml): 1.8 ± 1.2%
- NBT reduction, Positive cells (%) ([6]; 3 μg/ml): 9.3 ± 2.8%
- NBT reduction, Positive cells (%) ([6]; 4 μg/ml): 59.0 ± 12.6 ^a %

Structure (SMILES): CC1CNCCN1S(=O)(=O)c1cccc2cnccc12 (centres unmarked) [H7]
- monocytes/macrophages (%) ([7]; H7 15 μM alone): 0%

Structure (SMILES): CN[C@@H]1C[C@H]2O[C@@](C)([C@@H]1OC)n1c3ccccc3c3c4c(c5c6ccccc6n2c5c31)C(=O)NC4 [Staurosporine]
- monocytes/macrophages (%) ([7]; Staurosporine 10 nM alone): 0%

Structure (SMILES): CCCCCCCCCCCCCC(=O)O[C@@H]1[C@@H](C)[C@@]2(O)[C@@H](C=C(CO)C[C@]3(O)C(=O)C(C)=C[C@@H]23)[C@H]2C(C)(C)[C@]12OC(C)=O [TPA]
- differentiation-inducing activity after pretreatment of PKC inhibitor H7 and staurosporine ([7]; HL-60 cells, Table 3): suppressed
- monocytes/macrophages (%) ([7]; TPA 10 ng/ml alone): 76.8 ± 7.2%
- monocytes/macrophages (%) ([7]; TPA 10 ng/ml with H7 15 μM): 30.2 ± 4.5%
- monocytes/macrophages (%) ([7]; TPA 10 ng/ml with Staurosporine 10 nM): 35.0 ± 2.3%
